Experimental data taken from patent US20170327598A1, “SINGLE DOMAIN ANTIBODIES DIRECTED AGAINST INTRACELLULAR ANTIGENS” (SINGH MOLECULAR MEDICINE, LLC, priority 2014, published 2017).
Values joined by “and” are separate entries in the source; they are usually repeats but may differ in a detail not shown here. Identical values can stand only once. Like-named read-outs stand apart in the source and are kept apart here.

Tests used:
human KRAS = assay: Biacore 3000 protein binding, KRAS ligand immobilized (Example 22); conditions: sdAb as analyte
DU145 cells = assay: MTT proliferation assay, DU145; assay type: cell-based, human; parameters: Mean Abs: unit of the concentration uncertain
[1] = tested on: MCF-7 human breast tumor xenograft; conditions: for Tumor Volume TV (mm^3), group Mean / Tumor caliper measurement W (mm), individual animal / Tumor Volume TV (mm^3), individual animal / Tumor caliper measurement L (mm), individual animal: 1 mg/kg ip tid × 14
PANC-1 cells = assay: MTT proliferation assay, PANC-1; assay type: cell-based, human; conditions: for Mean Absorbance (570 nM) ± S.E.: single experiments 1-3, listed as B.VHH13
[2] = tested on: VEGF-A production in ARPE-19 cells; assay: VEGF-A ELISA in ARPE-19 retinal cells, Experiment 2;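 as to all read-outs here: confluent ARPE-19 cells in 96-well plates, VEGF-A in culture supernatant quantified by ELISA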; assay type: cell-based, human; conditions: 0.1 μg/well; for pg VEGF-A per mL: based on collecting 0.1 ml of supernatant; for Mean (pg VEGF-A per mL): mean of Adj. Result, Wells 1-3; for Mean (pg VEGF-A per μg protein): mean of Wells 1-3; for Mean (pg VEGF-A per μg protein) / % Control: Experiment 2; for % Control: normalized for protein; for Mean Result (pg VEGF-A per mL) / pg VEGF-A per μg protein / Adj. Result (pg VEGF-A per mL): per well; for Adj. Result (pg VEGF-A per mL): adjusted for dilution
[3] = 1 mg/kg ip tid × 14 first Day 2 doses

**Q.** What does the source list for “Anti-STAT3 VHH13: anti-STAT3 single domain antibody, SEQ ID NO:3; bacterially produced form referred to as SBT-100”?
**A.** binding to KRAS ligand (human KRAS): bound; Average Absorbance (DU145 cells; DU145, 50 μg): 0.98; Average % Inhibition (DU145 cells; DU145, 50 μg (50.0 μg/ml), listed as anti-STAT3 bacterial VHH13): 31.2%; Absorbance (DU145 cells; DU145, 50 μg, Experiments 1-3, listed as Anti-STAT3 Bacterial VHH13): 0.68 and 1.2 and 1.03; Average Absorbance (DU145 cells; DU145, 100 μg): 0.10; Mean Abs (DU145 cells; Table 18, DU145, 0.39 (unit uncertain)): 0.906; Mean Abs (DU145 cells; Table 18, DU145, 3.13 (unit uncertain)): 0.783; Mean Abs (DU145 cells; Table 18, DU145, 6.25 (unit uncertain)): 0.770; Mean Abs (DU145 cells; Table 18, DU145, 25 (unit uncertain)): 0.359; Mean Abs (DU145 cells; Table 18, DU145, 50 (unit uncertain)): 0.161; Mean Abs (DU145 cells; Table 18, DU145, 100 (unit uncertain)): 0.039; Mean Abs (DU145 cells; Table 18, DU145, 200 (unit uncertain)): 0.039; % TGD [1, 3]: 42%; Median TTE [1, 3]: 32.9; T-C [1, 3]: 9.7; Tumor Volume TV (mm^3), group Mean ([1]; Day 1): 117 mm^3; Tumor caliper measurement W (mm), individual animal ([1]; Day 1): 6 mm; Tumor Volume TV (mm^3), individual animal ([1]; Day 1, 1 mg/kg): 108 mm^3 (2×) and 126 mm^3 (2×); Tumor caliper measurement L (mm), individual animal ([1]; Day 1, 1 mg/kg): 6 mm (2×) and 7 mm (2×); Tumor Volume TV (mm^3), group Mean ([1]; Day 4): 155.3 mm^3; Tumor Volume TV (mm^3), individual animal ([1]; Day 4, 1 mg/kg): 196 mm^3 and 126 mm^3 and 144 mm^3; Tumor caliper measurement L (mm), individual animal ([1]; Day 4, 1 mg/kg): 8 mm (2×) and 7 mm; Tumor caliper measurement W (mm), individual animal ([1]; Day 4, 1 mg/kg): 7 mm and 6 mm (2×); Tumor Volume TV (mm^3), group Mean ([1]; Day 8): 253.7 mm^3; Tumor Volume TV (mm^3), individual animal ([1]; Day 8, 1 mg/kg): 320 mm^3 and 196 mm^3 and 245 mm^3; Tumor caliper measurement L (mm), individual animal ([1]; Day 8, 1 mg/kg): 8 mm; Tumor caliper measurement W (mm), individual animal ([1]; Day 8, 1 mg/kg): 7 mm; Tumor Volume TV (mm^3), group Mean ([1]; Day 11): 307 mm^3; Tumor Volume TV (mm^3), individual animal ([1]; Day 11, 1 mg/kg): 405 mm^3 and 196 mm^3 and 320 mm^3; Tumor caliper measurement L (mm), individual animal ([1]; Day 11, 1 mg/kg): 8 mm; Tumor caliper measurement W (mm), individual animal ([1]; Day 11, 1 mg/kg): 9 mm and 7 mm; Tumor Volume TV (mm^3), group Mean ([1]; Day 15): 346.5 mm^3; Tumor Volume TV (mm^3), individual animal ([1]; Day 15, 1 mg/kg): 405 mm^3 and 288 mm^3; Tumor caliper measurement L (mm), individual animal ([1]; Day 15, 1 mg/kg): 9 mm; Tumor caliper measurement W (mm), individual animal ([1]; Day 15, 1 mg/kg): 9 mm; Tumor Volume TV (mm^3), group Mean ([1]; Day 18): 346.5 mm^3; Tumor Volume TV (mm^3), individual animal ([1]; Day 18, 1 mg/kg): 405 mm^3 and 288 mm^3; Tumor caliper measurement L (mm), individual animal ([1]; Day 18, 1 mg/kg): 9 mm; Tumor caliper measurement W (mm), individual animal ([1]; Day 18, 1 mg/kg): 9 mm; Tumor Volume TV (mm^3), group Mean ([1]; Day 22): 477.5 mm^3; Tumor Volume TV (mm^3), individual animal ([1]; Day 22, 1 mg/kg): 550 mm^3 and 405 mm^3; Tumor caliper measurement L (mm), individual animal ([1]; Day 22, 1 mg/kg): 11 mm; Tumor caliper measurement W (mm), individual animal ([1]; Day 22, 1 mg/kg): 9 mm; Tumor Volume TV (mm^3), group Mean ([1]; Day 25): 634.5 mm^3; Tumor Volume TV (mm^3), individual animal ([1]; Day 25, 1 mg/kg): 864 mm^3 and 405 mm^3; Tumor caliper measurement L (mm), individual animal ([1]; Day 25, 1 mg/kg): 12 mm; Tumor caliper measurement W (mm), individual animal ([1]; Day 25, 1 mg/kg): 12 mm and 9 mm; Tumor Volume TV (mm^3), group Mean ([1]; Day 29): 799.3 mm^3; Tumor Volume TV (mm^3), individual animal ([1]; Day 29, 1 mg/kg): 1099 mm^3 and 500 mm^3; Tumor caliper measurement L (mm), individual animal ([1]; Day 29, 1 mg/kg): 13 mm; Tumor caliper measurement W (mm), individual animal ([1]; Day 29, 1 mg/kg): 13 mm; Tumor Volume TV (mm^3), group Mean ([1]; Day 32): 500 mm^3; Tumor Volume TV (mm^3), individual animal ([1]; Day 32): 500 mm^3; Tumor Volume TV (mm^3), group Mean ([1]; Day 36): 864 mm^3; Tumor Volume TV (mm^3), individual animal ([1]; Day 36): 864 mm^3; Tumor caliper measurement L (mm), individual animal ([1]; Day 36): 12 mm; Tumor caliper measurement W (mm), individual animal ([1]; Day 36): 12 mm; Tumor Volume TV (mm^3), group Mean ([1]; Day 39): 1098.5 mm^3; Tumor Volume TV (mm^3), individual animal ([1]; Day 39): 1099 mm^3; Tumor caliper measurement L (mm), individual animal ([1]; Day 39): 13 mm; Tumor caliper measurement W (mm), individual animal ([1]; Day 39): 13 mm; Mean Absorbance (570 nM) ± S.E., Overall Mean (PANC-1 cells; PANC-1, Day 3, 10.0 μg/ml): 0.472 ± 0.020; Mean Absorbance (570 nM) ± S.E. (PANC-1 cells; PANC-1, Day 3, 10.0 μg/ml): 0.432 ± 0.015 and 0.491 ± 0.087 and 0.493 ± 0.029; Mean Absorbance (570 nM) ± S.E., Overall Mean (PANC-1 cells; PANC-1, Day 3, 100 μg/ml): 0.214 ± 0.047; Mean Absorbance (570 nM) ± S.E. (PANC-1 cells; PANC-1, Day 3, 100 μg/ml): 0.307 ± 0.012 and 0.169 ± 0.094 and 0.166 ± 0.028; Mean Absorbance (570 nM) ± S.E., Overall Mean (PANC-1 cells; PANC-1, Day 5, 10.0 μg/ml): 0.643 ± 0.126; Mean Absorbance (570 nM) ± S.E., Overall Mean (PANC-1 cells; PANC-1, Day 5, 100 μg/ml): 0.219 ± 0.012; Mean Absorbance (570 nM) ± S.E. (PANC-1 cells; PANC-1, Day 5, 100 μg/ml): 0.243 ± 0.024 and 0.211 ± 0.006 and 0.203 ± 0.013; % Negative Control ([2]; 12 Hr): 123.8%; pg VEGF-A per mL ([2]; 12 Hr): 18.6 pg VEGF-A per mL and 14.3 pg VEGF-A per mL and 15 pg VEGF-A per mL; Mean (pg VEGF-A per mL) ([2]; 12 Hr): 159.7 pg VEGF-A per mL; Mean (pg VEGF-A per μg protein) ([2]; 12 Hr): 2.540 pg VEGF-A per μg protein; % Control ([2]; 12 Hr): 134.4%; Mean Result (pg VEGF-A per mL) ([2]; 12 Hr): 37.2 pg VEGF-A per mL and 28.54 pg VEGF-A per mL and 30.06 pg VEGF-A per mL; pg VEGF-A per μg protein ([2]; 12 Hr): 3 pg VEGF-A per μg protein and 2.1 pg VEGF-A per μg protein and 2.4 pg VEGF-A per μg protein; Adj. Result (pg VEGF-A per mL) ([2]; 12 Hr): 186.02 pg VEGF-A per mL and 142.71 pg VEGF-A per mL and 150.31 pg VEGF-A per mL; Result (pg VEGF-A per mL) ([2]; 12 Hr, single reads): 30.38 pg VEGF-A per mL and 36.84 pg VEGF-A per mL and 37.57 pg VEGF-A per mL and 29.44 pg VEGF-A per mL and 27.64 pg VEGF-A per mL and 29.74 pg VEGF-A per mL; % Negative Control ([2]; 24 Hr): 93.6%; pg VEGF-A per mL ([2]; 24 Hr): 27.9 pg VEGF-A per mL and 28 pg VEGF-A per mL and 30.4 pg VEGF-A per mL; Mean (pg VEGF-A per mL) ([2]; 24 Hr): 287.4 pg VEGF-A per mL; Mean (pg VEGF-A per μg protein) ([2]; 24 Hr): 4.152 pg VEGF-A per μg protein; % Control ([2]; 24 Hr): 94.1%; Mean Result (pg VEGF-A per mL) ([2]; 24 Hr): 55.73 pg VEGF-A per mL and 56.02 pg VEGF-A per mL and 60.72 pg VEGF-A per mL; pg VEGF-A per μg protein ([2]; 24 Hr): 3.8 pg VEGF-A per μg protein and 4.0 pg VEGF-A per μg protein and 4.7 pg VEGF-A per μg protein; Adj. Result (pg VEGF-A per mL) ([2]; 24 Hr): 278.66 pg VEGF-A per mL and 280.09 pg VEGF-A per mL and 303.58 pg VEGF-A per mL
